According to PubChem BioAssay (NCI):
Where “and” joins values, the source holds several entries; their conditions need not be identical. Equal values may be shown once.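 Briefly, cells in 96-well plates were exposed to five compound concentrations for 48 h, and endpoints were estimated by linear interpolation. GI50 = concentration required for 50% inhibition of growth. The concentration for full growth arrest is given as TGI.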

Assays:
Assay in all cases: NCI tumour cell line growth inhibition, 48 h
786-0 renal = test system: 786-0 renal
HCT-15 colon = test system: HCT-15 colon
HT29 colon = test system: HT29 colon
NCI-H226 lung = test system: NCI-H226 lung
RXF 393 renal = test system: RXF 393 renal
SN12C renal = test system: SN12C renal
SW-620 colon = test system: SW-620 colon
DU-145 prostate = test system: DU-145 prostate
NCI/ADR-RES ovarian = test system: NCI/ADR-RES ovarian
PC-3 prostate = test system: PC-3 prostate

SMILES	TGI (786-0 renal)	TGI (HCT-15 colon) [µM]	TGI (HT29 colon) [µM]	TGI (NCI-H226 lung) [µM]	TGI (RXF 393 renal)	TGI (SN12C renal) [µM]	TGI (SW-620 colon) [µM]	TGI (DU-145 prostate) [µM]	TGI (NCI/ADR-RES ovarian) [µM]	TGI (PC-3 prostate) [µM]	GI50 (RXF 393 renal)	GI50 (DU-145 prostate) [µM]	GI50 (HCT-15 colon) [µM]	GI50 (HT29 colon) [µM]	GI50 (NCI-H226 lung) [µM]	GI50 (NCI/ADR-RES ovarian) [µM]	GI50 (PC-3 prostate) [µM]	GI50 (SN12C renal) [µM]	GI50 (SW-620 colon) [µM]
C/C(CCN(C)C)=N/O	13.2 µM	25.1	10.3	63.9	15.7 µM	27.3	6.71	–	–	–	–	–	–	–	–	–	–	–	–
COc1ccccc1N=Nc1c(O)ccc2ccccc12	26.7 µM and 40.3 µM	> 100	> 100	–	35.3 µM and 59.7 µM	> 100	> 100	> 100	> 100	> 100	12.3 µM and 28.7 µM	–	–	–	–	–	–	–	–
Cc1nc(C(=Nc2ccc(Br)cc2)Nn2cnnc2)no1	> 100 µM	> 100	> 100	–	> 100 µM	–	> 100	> 100	> 100	> 100	–	–	–	–	–	–	–	–	–
Cc1cc2nc(N3C(=O)/C(=C/Cc4ccco4)N=C3c3ccccc3)sc2cc1C	96.6 µM	> 100	76.5	–	59.1 µM	87.9	> 100	> 100	> 100	54	–	–	–	–	–	–	–	–	–
COc1cc2c(cc1OC)C1=C(C=O)c3ccc(OC)c(OC)c3C(O)N1CC2 (stereo unspecified)	> 100 µM	> 100	> 100	> 100	–	> 100	> 100	87.5	79.6	54	–	–	–	–	–	–	–	–	–
CC1CC(c2ccccc2)=Nc2ccccc2S1 (stereo unspecified)	–	> 100	> 100	> 100	> 100 µM	> 100	> 100	–	–	–	–	–	–	–	–	–	–	–	–
COc1c(OC2OC(CO)C(O)C(O)C2O)cc2c(c1OC)-c1ccc(OC)c(=O)cc1C(NC(C)=O)CC2 (stereo unspecified)	> 100 µM	> 100	> 100	> 100	> 100 µM	> 100	> 100	–	–	–	–	–	–	–	–	–	–	–	–
Cc1ccc(NC(=O)CC/C(CC(=O)C(C)(C)C)=N/NC(=O)c2cc3ccccc3cc2O)cc1C	–	> 100	> 100	> 100	> 100 µM	> 100	> 100	–	–	–	–	–	–	–	–	–	–	–	–
COc1cc(C=O)cc(C=Nc2ccc(Br)cc2)c1O	–	> 100	> 100	8.19	15 µM	32.7	> 100	> 100	> 100	50.5	–	–	–	–	–	–	–	–	–
COC(=O)C(Cc1ccccc1)NC(=O)C(CNC(=O)OCc1ccccc1)C(=O)OCc1ccccc1 (stereo unspecified)	–	> 100	> 100	> 100	34.1 µM	> 100	–	> 100	> 100	> 100	–	–	–	–	–	–	–	–	–
O=C(O)C1CCC(=O)N1C(=O)COc1cc(Cl)c(Cl)cc1Cl (stereo unspecified)	–	> 100	> 100	> 100	–	> 100	> 100	–	–	–	–	–	–	–	–	–	–	–	–
COCOC1CCCC[C@@]1(OCCOCCO[C@@]1(c2ccccc2)CCCC[C@H]1OCOC)c1ccccc1 (stereo partly specified)	> 100 µM	–	> 100	> 100	> 100 µM	> 100	> 100	–	–	–	–	–	–	–	–	–	–	–	–
CC(C)(C)C(=O)c1c(O)c2ccccc2c2ccccc2c1=O	> 100 µM	> 100	> 100	> 100	–	> 100	> 100	> 100	–	> 100	–	–	–	–	–	–	–	–	–
C[n+]1c2ccccc2n2c3ccccc3c(NCCCn3ccnc3)c(C#N)c21	10.6 µM	12	37.9	9.11	3.48 µM	4.09	–	15.5	> 93.5	9.62	–	–	–	–	–	–	–	–	–
COC(=O)[C@H](C)NC(=O)[C@H](NS(=O)(=O)c1nc2ccccc2s1)c1ccccc1	80.4 µM	> 100	> 100	30.6	34.8 µM	–	> 100	41	> 100	> 100	–	–	–	–	–	–	–	–	–
COC(=O)CCC(C)[C@H]1CCC2C3CC[C@@H]4CC5(CC[C@]4(C)C3C[C@H](OC(C)=O)[C@@]21C)OOC1(CCCCC1)OO5 (stereo partly specified)	> 100 µM	> 100	> 100	> 100	> 100 µM	> 100	–	43.1	> 100	> 100	–	–	–	–	–	–	–	–	–
C=CCOC(C)(C)C1=CCC(C)CC1 (stereo unspecified)	> 100 µM	> 100	> 100	–	> 100 µM	> 100	> 100	> 100	–	> 100	–	–	–	–	–	–	–	–	–
COc1cc(C2c3cc4c(cc3[C@@H](Nc3ccc(F)cc3)C3COC[C@H]23)OCO4)cc(OC)c1O (stereo partly specified)	6.35 µM	18.9	8.82	–	–	23.1	> 25	–	> 25	> 25	–	–	–	–	–	–	–	–	–
N#Cc1cc(F)cc(Oc2ccc(S(=O)(=O)C(F)F)c3c2CC(F)(F)[C@H]3O)c1	–	> 100	> 100	> 100	> 100 µM	> 100	> 100	> 100	> 100	> 100	21.5 µM	36.1	29.2	39.3	31.3	26.4	23.9	28.7	55.3
CN1C(c2ccccc2)CC(O)CC1c1ccccc1 (stereo unspecified)	> 100 µM	> 100	> 100	> 100	> 100 µM	> 100	> 100	–	–	–	–	–	–	–	–	–	–	–	–
COc1ccc(/C(C=O)=C(\Cl)c2ccc(OC)c(OC)c2)cc1	–	> 100	> 100	> 100	> 100 µM	> 100	> 100	–	–	–	–	–	–	–	–	–	–	–	–
O=C1c2ccccc2-c2c1c1ccccc1c(=O)n2CCCNCCNCCCn1c2c(c3ccccc3c1=O)C(=O)c1ccccc1-2	–	0.56	–	1.98	–	1.81	0.258	1.07	1.75	1.84	–	–	0.0831	< 0.01	< 0.0267	0.358	0.0929	–	< 0.01
O=S(Nc1ccccc1)c1ccc(Cl)cc1 (stereo unspecified)	> 100 µM	> 100	> 100	> 100	–	> 100	> 100	> 100	> 100	–	–	–	–	–	–	–	–	–	–
CC1(C)N=C(/C(Cl)=[N+](/[O-])C(=O)c2ccc(Cl)cc2)C(C)(C)N1O	–	35.8	43	72.6	38 µM	47	44.9	> 100	63.8	37.5	–	–	–	–	–	–	–	–	–
